In publication PMC6934184, “Selective DNA-PKcs inhibition extends the therapeutic index of localized radiotherapy and chemotherapy” (The Journal of Clinical Investigation, 2019):

Molecular target: T1, ALK L1196M (Homo sapiens, UniProt Q9UM73, L1196M)
T1 construct: purchased Thermo Fisher Scientific (Life Technologies) SelectScreen
Assay: SelectScreen LanthaScreen
Format: binding
Conditions: read-out: % displacement
Outline: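 SelectScreen broad panel; activity (Z'LYTE, Adapta) plus binding formats. ATP: Km app for CSF1R Z'LYTE; 10 for CAMK1 Adapta. Readout = % per kinase.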

T1 sequence (Q9UM73 19-1620 L1196M): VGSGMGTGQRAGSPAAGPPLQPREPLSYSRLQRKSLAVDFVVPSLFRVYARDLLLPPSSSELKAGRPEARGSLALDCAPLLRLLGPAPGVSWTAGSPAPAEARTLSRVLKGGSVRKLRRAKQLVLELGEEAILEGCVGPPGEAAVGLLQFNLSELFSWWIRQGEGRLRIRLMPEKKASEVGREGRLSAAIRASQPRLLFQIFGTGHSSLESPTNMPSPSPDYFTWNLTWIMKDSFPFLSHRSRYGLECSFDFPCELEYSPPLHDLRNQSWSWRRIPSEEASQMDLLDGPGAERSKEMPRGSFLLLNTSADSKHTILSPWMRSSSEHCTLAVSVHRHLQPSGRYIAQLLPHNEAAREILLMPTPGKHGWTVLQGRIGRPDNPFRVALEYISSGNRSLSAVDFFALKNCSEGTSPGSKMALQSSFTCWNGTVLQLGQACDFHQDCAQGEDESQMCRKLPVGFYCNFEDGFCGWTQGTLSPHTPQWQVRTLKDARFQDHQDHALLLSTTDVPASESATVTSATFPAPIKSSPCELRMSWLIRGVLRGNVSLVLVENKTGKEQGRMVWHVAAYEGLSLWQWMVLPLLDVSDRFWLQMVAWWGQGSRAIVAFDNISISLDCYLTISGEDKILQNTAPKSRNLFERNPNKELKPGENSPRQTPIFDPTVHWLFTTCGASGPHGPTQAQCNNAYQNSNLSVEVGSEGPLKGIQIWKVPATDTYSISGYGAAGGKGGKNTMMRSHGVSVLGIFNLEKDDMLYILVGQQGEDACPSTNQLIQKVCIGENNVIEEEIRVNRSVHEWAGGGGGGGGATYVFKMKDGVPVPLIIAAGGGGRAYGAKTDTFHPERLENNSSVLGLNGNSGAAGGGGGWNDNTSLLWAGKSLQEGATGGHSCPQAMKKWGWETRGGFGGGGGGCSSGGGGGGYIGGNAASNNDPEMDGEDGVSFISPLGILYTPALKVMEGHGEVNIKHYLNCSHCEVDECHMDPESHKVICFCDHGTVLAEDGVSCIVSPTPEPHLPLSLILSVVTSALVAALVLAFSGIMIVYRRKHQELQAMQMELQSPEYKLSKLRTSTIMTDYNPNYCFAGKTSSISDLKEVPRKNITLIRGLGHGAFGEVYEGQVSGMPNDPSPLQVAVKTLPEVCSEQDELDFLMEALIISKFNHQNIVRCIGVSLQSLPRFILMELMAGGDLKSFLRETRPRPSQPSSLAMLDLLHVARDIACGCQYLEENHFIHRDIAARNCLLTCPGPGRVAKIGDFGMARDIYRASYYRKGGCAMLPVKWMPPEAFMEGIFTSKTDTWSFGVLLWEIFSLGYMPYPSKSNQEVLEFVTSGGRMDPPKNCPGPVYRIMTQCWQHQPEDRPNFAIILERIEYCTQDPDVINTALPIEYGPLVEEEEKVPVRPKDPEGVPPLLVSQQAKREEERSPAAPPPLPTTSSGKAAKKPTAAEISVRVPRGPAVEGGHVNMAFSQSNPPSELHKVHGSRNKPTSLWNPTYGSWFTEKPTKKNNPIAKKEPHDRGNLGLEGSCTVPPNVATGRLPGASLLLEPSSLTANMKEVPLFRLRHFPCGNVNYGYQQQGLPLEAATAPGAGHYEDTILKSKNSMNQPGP

CN(C(=O)CN1CCOCC1)c1ccc2sc3c(-c4cccc5c(=O)cc(N6CC7CCC(C6)O7)oc45)cccc3c2c1 [NU5455]
inhibition at 1 µM: -1.7%
